System: B16F1 melanoma cells
Experiment: Melanoma mouse model, injection into the tumor
Assay type: in vivo, C57BL/6NRj mice
Details: 50 μl into the tumor on two consecutive days; groups of 10 mice; FIG. 2
Protocol: The following compositions were prepared as described in Example 1 in aqueous acetic acid/acetate buffer, pH 5.2. The following chitosan was used in this study: chitosan medium molecular weight, 330 kDa, DAA 86% (manufacturer Chitinor, Norway). • 1: LTX-401, 5 mg/ml (free base) • 2: Chitosan, 1.2% (w/w) • 3: LTX-401, 5 mg/ml (free base) and chitosan, 1.2% (w/w) • 4: Control: aqueous acetic acid/acetate buffer
Immunocompetent C57BL/6NRj mice (JanVier Labs, France) were inoculated with B16F1 melanoma cells on day 0 by subcutaneous injection of 5×10^4 tumor cells per mouse/50 μl RPMI-1640 in the skin on the abdomen of the animal. The mice were divided into 4 groups of 10 mice each, and treatment was initiated when the tumors were palpable and reached the desired size of approximately 5 mm in diameter (40-80 mm^3). The respective compositions 1~4 were administered by injection into the tumor (50 μl) on two consecutive days (day 11 and 12 or day 12 and 13 or day 13 and 14, depending on tumor growth). The mice were monitored during the study by measuring the tumors and weighing the animals regularly. The tumor volume was measured using an electronic caliper and expressed as volume V=(L×W×W)/2, where W is the tumor width and L is the tumor length. […]

NCCNC(=O)C(CN)(CCCc1ccccc1)CCCc1ccccc1 [LTX-401]
Survival: 60%
